Counter-ions that a name gives are not always drawn.
Assays:
[1] = test system: Aspergillus-induced airway inflammation model; test: Inhibitory effect on Aspergillus-induced airway inflammation model; format: in vivo; details: mice; for inhibition in vivo at 10000 µg/mL, 100 mg/kg: Mus musculus, Eosinophil, po, 240 h, 10 mg/mL suspension at 10 mL/kg twice a day Day 0 to Day 9, BALF collected at Day 10, read-out: Inhibition rate on count of invasive eosinophil in BALF (%); for Inhibition rate on count of invasive eosinophil in BALF (%): oral, 10 mg/mL suspension at 10 mL/kg twice a day Day 0 to Day 9, BALF collected at Day 10
Protocol: Aspergillus fumigatus extracts (Greer laboratories, Inc.) were adjusted to 400 μg/mL with PBS. The Aspergillus fumigatus solutions thus prepared were administered to mice as nasal drops (50 μL) on Day 0, Day 1, Day 7 and Day 8. The nasal drop was administered one hour after the administration of test compounds in the morning. The test compound was administered twice a day in the morning and evening of Day 0 to Day 9. The test compound was suspended in 0.5% methylcellulose at 10 mg/mL, and orally administered at the dosage of 10 mL/kg. The bronchoalveolar lavage fluid (BALF) was collected at Day 10, and the total white blood cell count in BALF was measured using Celltac (NIHON KOHDEN). The ratio of eosinophil in total white blood cell was calculated using ADVIA 120 (Siemens Healthcare Diagnostics), and the ratio was multiplied by the total white blood cell count to determine the eosinophil count in BALF. The inhibition rate of the test compound was determined, assuming the inhibitory ratio in the treatment with Aspergillus fumigatus extract and 0.5% methylcellulose as 0% and the inhibitory ratio in the treatment without Aspergillus fumigatus extract but with 0.5% methylcellulose as 100%.

JAK1 = target: T1, JAK1 (Homo sapiens, UniProt P23458); test: JAK tyrosine kinase inhibitory activity in the presence of 1 mM ATP (ELISA), JAK1; format: biochemical
T1 construct: purchased Carna Biosciences, Inc
T1 sequence (P23458 whole entry): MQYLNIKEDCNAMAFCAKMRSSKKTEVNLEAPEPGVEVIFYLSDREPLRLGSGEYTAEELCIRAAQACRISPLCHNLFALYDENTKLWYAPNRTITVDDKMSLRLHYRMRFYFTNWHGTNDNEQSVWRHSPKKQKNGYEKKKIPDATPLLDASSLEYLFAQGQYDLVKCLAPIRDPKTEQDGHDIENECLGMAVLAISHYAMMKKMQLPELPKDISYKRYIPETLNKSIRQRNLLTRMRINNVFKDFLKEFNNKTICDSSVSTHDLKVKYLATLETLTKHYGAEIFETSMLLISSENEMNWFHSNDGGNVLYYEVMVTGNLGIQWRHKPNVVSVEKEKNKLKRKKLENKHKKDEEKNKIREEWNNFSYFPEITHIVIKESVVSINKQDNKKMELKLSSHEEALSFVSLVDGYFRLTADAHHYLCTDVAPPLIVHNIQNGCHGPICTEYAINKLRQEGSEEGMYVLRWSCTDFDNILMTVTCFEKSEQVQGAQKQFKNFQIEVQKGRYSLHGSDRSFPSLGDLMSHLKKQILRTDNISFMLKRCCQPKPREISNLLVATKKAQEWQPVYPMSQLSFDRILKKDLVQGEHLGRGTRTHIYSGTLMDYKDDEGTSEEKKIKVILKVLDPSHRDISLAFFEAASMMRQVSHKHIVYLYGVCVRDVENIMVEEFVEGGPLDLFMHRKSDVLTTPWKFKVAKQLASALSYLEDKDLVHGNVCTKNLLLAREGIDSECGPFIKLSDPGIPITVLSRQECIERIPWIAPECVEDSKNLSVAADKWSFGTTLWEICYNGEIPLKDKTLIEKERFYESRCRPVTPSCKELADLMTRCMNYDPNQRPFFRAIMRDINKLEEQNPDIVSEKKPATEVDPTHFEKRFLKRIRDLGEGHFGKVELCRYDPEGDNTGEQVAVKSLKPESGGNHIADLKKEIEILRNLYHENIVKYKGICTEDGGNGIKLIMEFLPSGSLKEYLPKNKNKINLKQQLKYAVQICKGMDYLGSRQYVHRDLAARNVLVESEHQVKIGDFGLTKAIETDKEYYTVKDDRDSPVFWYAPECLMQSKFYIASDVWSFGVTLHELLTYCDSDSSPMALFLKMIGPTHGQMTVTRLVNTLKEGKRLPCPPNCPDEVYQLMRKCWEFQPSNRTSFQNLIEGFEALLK
How it was run: (§1)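 Kinase reactions ran on streptavidin-coated plates in 15 mM Tris-HCl pH 7.5, 0.01% Tween-20, 1 mM DTT, 30 °C for 1 h. Enzyme was prediluted to 7.5 nM (JAK1) or 0.75 nM (JAK2, JAK3) before addition. Phosphotyrosine was detected with HRP anti-pTyr antibody and TMB at A450.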

JAK3 = target: T2, JAK3 (Homo sapiens, UniProt P52333); test: JAK tyrosine kinase inhibitory activity in the presence of 1 mM ATP (ELISA), JAK3; format: biochemical
T2 construct: purchased Carna Biosciences, Inc
T2 sequence (P52333 1-1124): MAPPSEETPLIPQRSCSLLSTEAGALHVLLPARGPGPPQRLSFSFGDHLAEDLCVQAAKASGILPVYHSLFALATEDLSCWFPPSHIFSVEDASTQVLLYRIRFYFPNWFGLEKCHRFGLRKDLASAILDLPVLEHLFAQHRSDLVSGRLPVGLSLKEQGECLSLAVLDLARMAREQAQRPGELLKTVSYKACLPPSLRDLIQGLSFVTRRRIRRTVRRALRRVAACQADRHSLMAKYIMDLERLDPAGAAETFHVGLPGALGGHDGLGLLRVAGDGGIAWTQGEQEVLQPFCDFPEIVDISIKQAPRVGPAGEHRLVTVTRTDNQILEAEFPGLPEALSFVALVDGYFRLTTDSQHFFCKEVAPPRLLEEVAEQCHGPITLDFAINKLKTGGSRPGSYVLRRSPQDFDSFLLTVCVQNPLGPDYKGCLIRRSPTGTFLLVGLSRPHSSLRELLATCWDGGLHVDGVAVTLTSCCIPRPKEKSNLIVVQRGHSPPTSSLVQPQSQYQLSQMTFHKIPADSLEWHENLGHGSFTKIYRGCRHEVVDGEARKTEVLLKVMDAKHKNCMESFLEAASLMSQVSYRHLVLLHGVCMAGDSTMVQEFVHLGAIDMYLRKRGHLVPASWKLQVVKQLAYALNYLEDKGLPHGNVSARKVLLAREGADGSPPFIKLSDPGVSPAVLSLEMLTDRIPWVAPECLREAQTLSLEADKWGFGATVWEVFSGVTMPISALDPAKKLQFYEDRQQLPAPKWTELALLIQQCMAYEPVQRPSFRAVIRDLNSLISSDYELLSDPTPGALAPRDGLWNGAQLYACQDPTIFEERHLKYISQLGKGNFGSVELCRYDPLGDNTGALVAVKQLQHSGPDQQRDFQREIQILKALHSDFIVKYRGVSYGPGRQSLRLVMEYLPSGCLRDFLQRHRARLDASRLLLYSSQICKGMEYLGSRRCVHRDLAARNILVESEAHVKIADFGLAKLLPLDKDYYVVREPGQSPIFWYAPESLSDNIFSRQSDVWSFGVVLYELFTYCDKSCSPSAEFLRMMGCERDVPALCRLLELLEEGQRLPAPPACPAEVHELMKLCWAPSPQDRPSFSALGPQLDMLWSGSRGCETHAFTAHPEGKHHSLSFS
How it was run: as §1

JAK2 = target: T3, JAK2 (Homo sapiens, UniProt O60674); test: JAK tyrosine kinase inhibitory activity in the presence of 1 mM ATP (ELISA), JAK2; format: biochemical
T3 construct: purchased Carna Biosciences, Inc
T3 sequence (O60674 whole entry): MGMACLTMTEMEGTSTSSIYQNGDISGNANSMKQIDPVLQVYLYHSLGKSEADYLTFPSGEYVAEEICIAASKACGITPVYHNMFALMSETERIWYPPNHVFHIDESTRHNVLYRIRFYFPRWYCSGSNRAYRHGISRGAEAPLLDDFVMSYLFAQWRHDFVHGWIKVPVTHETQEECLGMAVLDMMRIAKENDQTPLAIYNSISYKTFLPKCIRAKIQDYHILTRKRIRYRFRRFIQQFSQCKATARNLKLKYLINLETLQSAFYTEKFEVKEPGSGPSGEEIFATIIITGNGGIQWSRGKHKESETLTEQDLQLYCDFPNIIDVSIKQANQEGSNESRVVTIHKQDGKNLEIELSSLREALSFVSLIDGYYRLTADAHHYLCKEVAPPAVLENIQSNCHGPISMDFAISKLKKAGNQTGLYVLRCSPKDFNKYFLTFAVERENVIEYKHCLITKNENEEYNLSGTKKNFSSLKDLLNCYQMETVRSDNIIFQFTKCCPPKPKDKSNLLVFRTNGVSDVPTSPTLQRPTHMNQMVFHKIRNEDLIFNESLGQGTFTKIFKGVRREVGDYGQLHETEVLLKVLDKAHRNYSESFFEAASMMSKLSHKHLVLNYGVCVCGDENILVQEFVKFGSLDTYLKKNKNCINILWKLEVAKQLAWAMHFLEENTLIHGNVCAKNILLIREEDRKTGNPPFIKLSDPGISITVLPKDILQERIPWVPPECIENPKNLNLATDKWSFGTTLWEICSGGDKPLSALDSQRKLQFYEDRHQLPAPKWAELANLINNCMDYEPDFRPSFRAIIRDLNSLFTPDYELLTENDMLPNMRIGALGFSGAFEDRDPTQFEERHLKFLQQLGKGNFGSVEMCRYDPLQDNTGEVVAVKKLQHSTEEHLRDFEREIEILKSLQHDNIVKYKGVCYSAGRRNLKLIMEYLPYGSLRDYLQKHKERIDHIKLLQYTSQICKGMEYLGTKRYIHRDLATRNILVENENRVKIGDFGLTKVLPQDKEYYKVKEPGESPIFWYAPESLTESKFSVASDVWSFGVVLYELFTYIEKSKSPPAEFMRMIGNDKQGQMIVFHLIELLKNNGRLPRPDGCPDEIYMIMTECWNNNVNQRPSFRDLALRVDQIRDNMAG
How it was run: as §1

SMILES | inhibition in vivo at 10000 µg/mL, 100 mg/kg [1] [%] | IC50 (JAK1) [nM] | IC50 (JAK3) [nM] | IC50 (JAK2) [nM] | Inhibition rate on count of invasive eosinophil in BALF (%) [1] [%] | Inhibition rate on count of invasive eosinophil in BALF (%) ([1]; hydrochloride)
COC(=O)NC1CCN(C(=O)c2cc(N[C@@H](C)C3CC3)nc(-c3cnn4ccsc34)n2)CC1 [Example 26, Methyl (1-{[6-{[(1S)-1-cycloproropylethyl]amino}-2-(pyrazolo[5,1-b][1,3]thiazol-7-yl)pyrimidin-4-yl]carbonyl}piperidin-4-yl)carbamate] | 58 | 75 | 2100 | 2100 | – | –
COC(=O)NC1CCN(C(=O)c2cc(N[C@@H](C)C3CC3)nc(-c3cnn4ccsc34)n2)CC1.Cl [Example 27, Methyl (1-{[6-{[(1S)-1-cyclopropylethyl]amino}-2-(pyrazolo[5,1-b][1,3]thiazol-7-yl)pyrimidin-4-yl]carbonyl}piperidin-4-yl)carbamate hydrochloride] | – | 140 | 4300 | 2500 | 62 | –
CCOC(=O)NC1CCN(C(=O)c2cc(N[C@@H](C)C3CC3)nc(-c3cnn4ccsc34)n2)CC1 [Example 28, Ethyl (1-{[6-{[(1S)-1-cyclopropylethyl]amino}-2-(pyrazolo[5,1-b][1,3]thiazol-7-yl)pyrimidin-4-yl]carbonyl}piperidin-4-yl)carbamate] | 52 | 120 | > 10000 | 2100 | – | –
C[C@@H](C1CC1)N(C)c1cc(C(=O)N2CCC(NC(=O)C3CC3)CC2)nc(-c2cnn3ccsc23)n1 [Example 33, N-(1-{[6-{[(1S)-1-Cyclopropylethyl](methyl)amino}-2-(pyrazolo[5,1-b][1,3]thiazol-7-yl)pyrimidin-4-yl]carbonyl}piperidin-4-yl)cyclopropanecarboxamide hydrochloride] | 37 | 130 | 1700 | 1700 | – | –
CC(C)OC(=O)NC1CCN(C(=O)c2cc(N[C@@H](C)C3CC3)nc(-c3cnn4ccsc34)n2)CC1 [Example 41, Propan-2-yl (1-{[6-{[(1S)-1-cyclopropylethyl]amino}-2-(pyrazolo[5,1-b][1,3]thiazol-7-yl)pyrimidin-4-yl]carbonyl}piperidin-4-yl)carbamate] | 51 | 96 | > 10000 | 2700 | – | –
CC(C)(C)Nc1cc(C(=O)N2CCC(O)CC2)nc(-c2cnn3ccsc23)n1 [Example 58, [6-(tert-Butylamino)-2-(pyrazolo[5,1-b][1,3]thiazol-7-yl)pyrimidin-4-yl](4-hydroxypiperidin-1-yl)methanone] | 37 | 400 | > 10000 | 2900 | – | –
C[C@@H](Nc1cc(C(=O)N2CCC(O)CC2)nc(-c2cnn3ccsc23)n1)C(C)(C)C [Example 62, [6-{[(2R)-3,3-Dimethylbutan-2-yl]amino}-2-(pyrazolo[5,1-b][1,3]thiazol-7-yl)pyrimidin 4 yl](4-hydroxypiperidin-1-yl)methanone hydrochloride] | 36 | 10 | 1100 | 1000 | – | –
CCOC(=O)NC1CCN(C(=O)c2cc(N[C@H](C)C3CC3)nc(-c3cnn4ccsc34)n2)CC1 [Example 73, Ethyl (1-{[6-{[(1R)-1-cyclopropylethyl]amino}-2-(pyrazolo[5,1-b][1,3]thiazol-7-yl)pyrimidin-4-yl]carbonyl}piperidin-4-yl)carbamate] | – | 73 | 2200 | 3200 | 64 | –
CCOC(=O)NC1CCN(C(=O)c2cc(N[C@H](C)C3CC3)nc(-c3cnn4ccsc34)n2)CC1 [Example 74, Ethyl (1-{[6-{[(1R)-1-cycloproropylethyl]amino}-2-(pyrazolo[5,1-b][1,3]thiazol-7-yl)pyrimidin-4-yl]carbonyl}piperidin-4-yl)carbamate hydrochloride] | – | 95 | 2600 | 3100 | – | 34
CCC(CC)Nc1cc(C(=O)N2CCC(O)CC2)nc(-c2cnn3ccsc23)n1 [Example 81, (4-Hydroxypiperidin-1-yl) [6-(pentan-3-ylamino)-2-(pyrazolo[5,1-b][1,3]thiazol-7-yl)pyrimidin-4-yl]methanone hydrochloride] | 43 | 1600 | 3300 | 2200 | – | –
COC(=O)NC1CCN(C(=O)c2cc(NCC(C)(C)C)nc(-c3cnn4ccsc34)n2)CC1 [Example 87, Methyl [1-({6-[(2,2-dimethylpropyl)amino]-2-(pyrazolo[5,1-b][1,3]thiazol-7-yl)pyrimidin-4-yl}carbonyl)piperidin-4-yl]carbamate hydrochloride] | 24 | 250 | 9500 | 1600 | – | –
C[C@@H](Nc1cc(C(=O)N2CCC(NC(=O)OCC(F)F)CC2)nc(-c2cnn3ccsc23)n1)C1CC1 [Example 96, 2,2-Difluoroethyl (1-{[6-{[(1R)-1-cyclopropylethyl]amino}-2-(pyrazolo[5,1-b][1,3]thiazol-7-yl)pyrimidin-4-yl]carbonyl}piperidin-4-yl)carbamate hydrochloride] | 51 | 250 | 2200 | 1000 | – | –
C[C@@H](Nc1cc(C(=O)N2CCC(NC(=O)OCC(F)F)CC2)nc(-c2cnn3ccsc23)n1)C(C)(C)C [Example 97, 2,2-Difluoroethyl (1-{[6-{[(2R)-3,3-dimethylbutan-2-yl]amino}-2-(pyrazolo[5,1-b][1,3]thiazol-7-yl)pyrimidin-4-yl]carbonyl}piperidin-4-yl)carbamate hydrochloride] | 43 | 210 | 2700 | 1300 | – | –
CC[C@H](C)Nc1cc(C(=O)N2CCC(NC(=O)OC)CC2)nc(-c2cnn3ccsc23)n1 [Example 125, Methyl [1-({6-[(2S)-butan-2-ylamino]-2-(pyrazolo[5,1-b][1,3]thiazol-7-yl)pyrimidin-4-yl}carbonyl)piperidin-4-yl]carbamate hydrochloride] | 35 | 210 | > 10000 | 4700 | – | –
CC[C@@H](C)Nc1cc(C(=O)N2CCC(NC(=O)OC)CC2)nc(-c2cnn3ccsc23)n1 [Example 126, Methyl [1-({6-[(2R)-butan-2-ylamino]-2-(pyrazolo[5,1-b][1,3]thiazol-7-yl)pyrimidin-4-yl}carbonyl)piperidin-4-yl]carbamate] | 57 | 820 | > 10000 | > 10000 | – | –
